biological target: T1, STAT6 protein (Homo sapiens, UniProt P42226); assay: Fluorescence polarization (FP) binding assay, STAT6; conditions: FP competition, 5 nM fluorescein-labeled tracer, 200 nM protein, PBS pH7.4; read-out: Binding STAT6
T1 sequence (P42226 1-847): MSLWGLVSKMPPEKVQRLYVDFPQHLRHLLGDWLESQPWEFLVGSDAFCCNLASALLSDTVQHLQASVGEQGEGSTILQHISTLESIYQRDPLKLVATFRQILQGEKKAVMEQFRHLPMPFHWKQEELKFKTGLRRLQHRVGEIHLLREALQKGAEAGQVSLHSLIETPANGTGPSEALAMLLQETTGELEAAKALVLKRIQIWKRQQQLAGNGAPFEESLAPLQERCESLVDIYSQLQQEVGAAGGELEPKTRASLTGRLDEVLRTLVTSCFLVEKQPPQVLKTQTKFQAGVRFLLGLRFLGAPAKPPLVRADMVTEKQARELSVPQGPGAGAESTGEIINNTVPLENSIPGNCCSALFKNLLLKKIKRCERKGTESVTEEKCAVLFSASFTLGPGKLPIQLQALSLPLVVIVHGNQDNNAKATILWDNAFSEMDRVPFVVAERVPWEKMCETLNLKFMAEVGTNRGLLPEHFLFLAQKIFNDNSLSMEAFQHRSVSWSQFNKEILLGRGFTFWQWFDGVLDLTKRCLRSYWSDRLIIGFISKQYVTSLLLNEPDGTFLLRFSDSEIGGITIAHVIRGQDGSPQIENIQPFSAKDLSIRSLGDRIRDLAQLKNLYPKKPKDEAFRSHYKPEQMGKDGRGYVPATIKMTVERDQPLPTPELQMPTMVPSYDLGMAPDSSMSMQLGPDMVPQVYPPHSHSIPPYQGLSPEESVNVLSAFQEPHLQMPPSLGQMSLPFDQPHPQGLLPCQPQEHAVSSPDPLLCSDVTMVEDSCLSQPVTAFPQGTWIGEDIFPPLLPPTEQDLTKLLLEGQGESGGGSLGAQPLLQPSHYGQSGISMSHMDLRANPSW
Method: Evaluation of the activity of the inhibitors may be accomplished by fluorescence polarization (FP) experiments. A representative general protocol is the following:
Fluorescence polarization (FP) experiments are performed in black round-bottom plates using the CLARIOstar microplate reader. To each well, fluorescein-labeled tracer and STAT5 or STAT6 protein are added in assay buffer. […] The inhibition constants are determined as the concentration of the STAT5 or STAT6 at which 50% of the ligand is bound.
Fluorescence polarization (FP) experiments were performed in 96-well, black round-bottom plates (Microfluor 2, Fisher Scientific) using the CLARIOstar microplate reader (BMG Labtech). To each well, 5 nM of fluoresceinlabeled tracer and 200 nM of STAT5 and/or STAT6 protein were added to a final volume of 100 μl in the assay buffer (PBS pH7.4+0.01% BGG+0.01% Tween-20, 2 mM DTT). The plate was mixed on a shaker for 15 m and incubated at room temperature for 1 h to reach equilibrium. […] All experimental data were analyzed using Prism 8.0 software (GraphPad Software), and the inhibition constants were determined by nonlinear curve fitting as the concentration of the STAT5 and/or STAT6 at which 50% of the ligand is bound.

Structure (SMILES) | Ki [µM]
CC(C)(C)[C@H](NC(=O)c1cc2cc(C(F)(F)P(=O)(O)O)ccc2s1)C(=O)N1Cc2ccccc2C[C@H]1C(=O)N1CCOC(c2ccccc2Cl)C1 (stereo partly drawn) [Compound 232, ((2-(((2S)-1-((3S)-3-(2-(2-chlorophenyl)morpholine-4-carbonyl)-3,4-dihydroisoquinolin-2(1H)-yl)-3,3-dimethyl-1-oxobutan-2-yl)carbamoyl)benzo[b]thiophen-5-yl)difluoromethyl)phosphonic acid] | 0.1 to 1
CC1(c2ccc(Cl)cc2)CN(C(=O)[C@@H]2Cc3ccccc3CN2C(=O)[C@@H](NC(=O)c2cc3cc(C(F)(F)P(=O)(O)O)ccc3s2)C(C)(C)C)CCO1 (stereo partly drawn) [Compound 235, ((2-(((2S)-1-((3S)-3-(2-(4-chlorophenyl)-2-methylmorpholine-4-carbonyl)-3,4-dihydroisoquinolin-2(1H)-yl)-3,3-dimethyl-1-oxobutan-2-yl)carbamoyl)benzo[b]thiophen-5-yl)difluoromethyl)phosphonic acid] | 1 to 10
CC(C)(C)[C@H](NC(=O)c1cc2cc(C(F)(F)P(=O)(O)O)ccc2s1)C(=O)N1Cc2ccccc2C[C@H]1C(=O)N1CCOC(c2ccc(F)cc2F)C1 (stereo partly drawn) [Compound 237, ((2-(((2S)-1-((3S)-3-(2-(2,4-difluorophenyl)morpholine-4-carbonyl)-3,4-dihydroisoquinolin-2(1H)-yl)-3,3-dimethyl-1-oxobutan-2-yl)carbamoyl)benzo[b]thiophen-5-yl)difluoromethyl)phosphonic acid] | 0.1 to 1
CC(C)(C)[C@H](NC(=O)c1cc2cc(C(F)(F)P(=O)(O)O)ccc2s1)C(=O)N1Cc2ccccc2C[C@H]1C(=O)N1CCOC(c2ccc(F)c(F)c2)C1 (stereo partly drawn) [Compound 238, ((2-(((2S)-1-((3S)-3-(2-(3,4-difluorophenyl)morpholine-4-carbonyl)-3,4-dihydroisoquinolin-2(1H)-yl)-3,3-dimethyl-1-oxobutan-2-yl)carbamoyl)benzo[b]thiophen-5-yl)difluoromethyl)phosphonic acid] | 0.1 to 1
CC(C)(C)[C@H](NC(=O)c1cc2cc(C(F)(F)P(=O)(O)O)ccc2s1)C(=O)N1Cc2ccccc2C[C@H]1C(=O)N1CCOC(c2cc(Cl)cc(Cl)c2)C1 (stereo partly drawn) [Compound 242, ((2-(((2S)-1-((3S)-3-(2-(3,5-dichlorophenyl)morpholine-4-carbonyl)-3,4-dihydroisoquinolin-2(1H)-yl)-3,3-dimethyl-1-oxobutan-2-yl)carbamoyl)benzo[b]thiophen-5-yl)difluoromethyl)phosphonic acid] | 0.1 to 1
CC(C)(C)[C@H](NC(=O)c1cc2cc(C(F)(F)P(=O)(O)O)ccc2s1)C(=O)N1Cc2ccccc2C[C@H]1C(=O)N1CCOC(c2cc(F)c(Cl)cc2Cl)C1 (stereo partly drawn) [Compound 243, ((2-(((2S)-1-((3S)-3-(2-(2,4-dichloro-5-fluorophenyl)morpholine-4-carbonyl)-3,4-dihydroisoquinolin-2(1H)-yl)-3,3-dimethyl-1-oxobutan-2-yl)carbamoyl)benzo[b]thiophen-5-yl)difluoromethyl)phosphonic acid] | 0.1 to 1
CC(C)(C)[C@H](NC(=O)c1cc2cc(C(F)(F)P(=O)(O)O)ccc2s1)C(=O)N1Cc2ccccc2C[C@H]1C(=O)N1CCCCC(c2ccccc2)C1 (stereo partly drawn) [Compound 244, ((2-(((2S)-3,3-dimethyl-1-oxo-1-((3S)-3-(3-phenylazepane-1-carbonyl)-3,4-dihydroisoquinolin-2(1H)-yl)butan-2-yl)carbamoyl)benzo[b]thiophen-5-yl)difluoromethyl)phosphonic acid] | 1 to 10

The next lines start with the values.

Ki [µM] | Structure (SMILES)
0.1 to 1 | CC(C)(C)[C@H](NC(=O)c1cc2cc(C(F)(F)P(=O)(O)O)ccc2s1)C(=O)N1Cc2ccccc2C[C@H]1C(=O)N1CCOC(c2ccccc2F)C1 (stereo partly drawn) [Compound 230, (difluoro(2-(((2S)-1-((3S)-3-(2-(2-fluorophenyl)morpholine-4-carbonyl)-3,4-dihydroisoquinolin-2(1H)-yl)-3,3-dimethyl-1-oxobutan-2-yl)carbamoyl)benzo[b]thiophen-5-yl)methyl)phosphonic acid]
0.1 to 1 | CC(C)(C)[C@H](NC(=O)c1cc2cc(C(F)(F)P(=O)(O)O)ccc2s1)C(=O)N1Cc2ccccc2C[C@H]1C(=O)N1CCOC(c2ccc(F)cc2)C1 (stereo partly drawn) [Compound 231, (difluoro(2-(((2S)-1-((3S)-3-(2-(4-fluorophenyl)morpholine-4-carbonyl)-3,4-dihydroisoquinolin-2(1H)-yl)-3,3-dimethyl-1-oxobutan-2-yl)carbamoyl)benzo[b]thiophen-5-yl)methyl)phosphonic acid]
< 0.1 | CC(C)(C)[C@H](NC(=O)c1cc2cc(C(F)(F)P(=O)(O)O)ccc2s1)C(=O)N1Cc2ccccc2C[C@H]1C(=O)N1CCOC(c2cccc(Cl)c2)C1 (stereo partly drawn) [Compound 233, ((2-(((2S)-1-((3S)-3-(2-(3-chlorophenyl)morpholine-4-carbonyl)-3,4-dihydroisoquinolin-2(1H)-yl)-3,3-dimethyl-1-oxobutan-2-yl)carbamoyl)benzo[b]thiophen-5-yl)difluoromethyl)phosphonic acid]
0.1 to 1 | CC(C)(C)[C@H](NC(=O)c1cc2cc(C(F)(F)P(=O)(O)O)ccc2s1)C(=O)N1Cc2ccccc2C[C@H]1C(=O)N1CCOC(c2ccc(Cl)cc2)C1 (stereo partly drawn) [Compound 234, ((2-(((2S)-1-((3S)-3-(2-(4-chlorophenyl)morpholine-4-carbonyl)-3,4-dihydroisoquinolin-2(1H)-yl)-3,3-dimethyl-1-oxobutan-2-yl)carbamoyl)benzo[b]thiophen-5-yl)difluoromethyl)phosphonic acid]
1 to 10 | CC1(c2ccc(F)cc2)CN(C(=O)[C@@H]2Cc3ccccc3CN2C(=O)[C@@H](NC(=O)c2cc3cc(C(F)(F)P(=O)(O)O)ccc3s2)C(C)(C)C)CCO1 (stereo partly drawn) [Compound 236, (difluoro(2-(((2S)-1-((3S)-3-(2-(4-fluorophenyl)-2-methylmorpholine-4-carbonyl)-3,4-dihydroisoquinolin-2(1H)-yl)-3,3-dimethyl-1-oxobutan-2-yl)carbamoyl)benzo[b]thiophen-5-yl)methyl)phosphonic acid]
1 to 10 | CC(C)(C)[C@H](NC(=O)c1cc2cc(C(F)(F)P(=O)(O)O)ccc2s1)C(=O)N1Cc2ccccc2C[C@H]1C(=O)N1CCOC(c2ccc(F)c(Cl)c2)C1 (stereo partly drawn) [Compound 239, ((2-(((2S)-1-((3S)-3-(2-(3-chloro-4-fluorophenyl)morpholine-4-carbonyl)-3,4-dihydroisoquinolin-2(1H)-yl)-3,3-dimethyl-1-oxobutan-2-yl)carbamoyl)benzo[b]thiophen-5-yl)difluoromethyl)phosphonic acid]
0.1 to 1 | CC(C)(C)[C@H](NC(=O)c1cc2cc(C(F)(F)P(=O)(O)O)ccc2s1)C(=O)N1Cc2ccccc2C[C@H]1C(=O)N1CCOC(c2ccc(Cl)c(Cl)c2)C1 (stereo partly drawn) [Compound 240, ((2-(((2S)-1-((3S)-3-(2-(3,4-dichlorophenyl)morpholine-4-carbonyl)-3,4-dihydroisoquinolin-2(1H)-yl)-3,3-dimethyl-1-oxobutan-2-yl)carbamoyl)benzo[b]thiophen-5-yl)difluoromethyl)phosphonic acid]
1 to 10 | Cc1cc(C2CN(C(=O)[C@@H]3Cc4ccccc4CN3C(=O)[C@@H](NC(=O)c3cc4cc(C(F)(F)P(=O)(O)O)ccc4s3)C(C)(C)C)CCO2)ccc1F (stereo partly drawn) [Compound 241, (difluoro(2-(((2S)-1-((3S)-3-(2-(4-fluoro-3-methylphenyl)morpholine-4-carbonyl)-3,4-dihydroisoquinolin-2(1H)-yl)-3,3-dimethyl-1-oxobutan-2-yl)carbamoyl)benzo[b]thiophen-5-yl)methyl)phosphonic acid]

— patent publication US20230295200A1 (REGENTS OF THE UNIVERSITY OF MICHIGAN, priority 2022, published 2023)
